In patent US20050065595A1, “Implants containing combretastatin a-4” (priority 2001, published 2005):

Tests used:
endothelial cells = assay: Cell culture studies with endothelial cells after CA4 treatment; assay type: cell-based; conditions: following a treatment with CA4
[1] = tested on: smooth muscle cells (SMCs); assay: SMC proliferation inhibition (BrdU-ELISA or cell counting); assay type: cell-based; conditions: for IC50: 96 h, SMCs, 2000 cells per well, BrdU-ELISA (paclitaxel: counting the number of cells), 24, 48, 72, 96 h
Procedure: SMCs were plated out in a 96-well plate in a density of 2000 cells per well. After 24 h, different concentrations of the active substance were adjusted (10^−2 to 10^−10M). The proliferation was measured after 24, 48, 72, and 96 h following the addition of the active substance using a BrdU-ELISA or, in the case of paclitaxel, by counting the number of cells.

alkaline phosphatases = conditions: by alkaline phosphatases; cited from earlier work
tumor cell lines = conditions: cell culture studies, many different tumor cell lines; read-out: IC50, growth of tumor cell lines; cited from earlier work
tumors = conditions: various animal models; cited from earlier work
neointimal development [2] = conditions: swine; cited from earlier work
neointimal development [3] = conditions: animal experiments; cited from earlier work
restenosis = conditions: vascular wall injured by balloon angioplasty and stent placement; cited from earlier work

COc1ccc(/C=C\c2cc(OC)c(OC)c(OC)c2)cc1O [CA4, 2-methoxy-5-[(1Z)-2-(3,4,5-trimethoxyphenyl)ethenyl]phenol]
recovery of endothelial cells versus SMCs after treatment (endothelial cells): endothelial cells are able to recover more rapidly than the SMCs
IC50 [1]: ~0.5 nM
effectiveness relative to paclitaxel (SMC proliferation) ([1]; CA4 vs paclitaxel): 10 to 50 times

COc1ccc(/C=C\c2cc(OC)c(OC)c(OC)c2)cc1OP(=O)([O-])[O-].[Na+].[Na+] [CA4P, disodium combretastatin-A4-3-O-phosphate]
transformation into CA4 in vivo (alkaline phosphatases): very rapidly transformed into CA4
IC50 (tumor cell lines): 0.2 to 6 nM
inhibition of tumor growth (tumors): markedly inhibit the growth of tumors

CC(=O)O[C@H]1C(=O)[C@@]2(C)[C@H]([C@H](OC(=O)c3ccccc3)[C@]3(O)C[C@H](OC(=O)[C@H](O)[C@@H](NC(=O)c4ccccc4)c4ccccc4)C(C)=C1C3(C)C)[C@]1(OC(C)=O)CO[C@@H]1C[C@@H]2O [paclitaxel]
IC50 [1]: ~10 nM
effect 6 months after implantation of coated stents (neointimal development [2]): the effect had been neutralized
effect on neointimal development (neointimal development [3]): inhibit the neointimal development

CO[C@H]1C[C@@H]2CC[C@@H](C)[C@@](O)(O2)C(=O)C(=O)N2CCCC[C@H]2C(=O)O[C@H]([C@H](C)C[C@@H]2CC[C@@H](O)[C@H](OC)C2)CC(=O)[C@H](C)/C=C(\C)[C@@H](O)[C@@H](OC)C(=O)[C@H](C)C[C@H](C)/C=C/C=C/C=C/1C [rapamycin]
healing of the vascular wall (restenosis): delayed healing of the vascular wall
